One test concerns the target T1, HSP90a protein (Homo sapiens, UniProt P07900).
T1 construct: purchased BPS Bioscience 50298
Kind of test: HSP90α-binding fluorescent polarization (FP) assay, BODIPY-labeled RNK04010 probe. The conditions noted are these: FP competition with RNK04010 (BODIPY-labeled), 5 nM, 300 min at 25° C. In outline:
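Competitive FP with N-terminal HSP90a; probe at 5 nM final, either BODIPY-labeled triazolone RNK04010 or FITC-geldanamycin. Test compounds as 2.5-fold dilutions from 20 μM to 5.2 nM. Incubated at 25 °C for 300 min (RNK04010) or 120 min (FITC-geldanamycin) before reading polarization.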

Test [1] deals with NCI-H358 human non-small cell lung cancer. Kind of test: NCI-H358 CCK-8 proliferation assay. The class given is cell-based. The conditions noted are these: NCI-H358 cells, 72 hr. Summed up: (§1)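 Proliferation of mutant-KRAS(G12C) cells (2 copies in MIA PaCa-2, single copy in NCI-H358/NCI-H23) measured with CCK-8 after treatment across 20 μM–1.02 nM; inhibition expressed relative to vehicle-treated wells after subtracting no-cell background.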
(In general: Tetrazolium assays rely on reduction of a dye to a coloured formazan, in cell work by metabolically active cells.)

The target in a further test is KRAS(G12C) (Homo sapiens, UniProt P01116, G12C). Put plainly: KRAS(G12C)/SOS1 homogeneous time-resolved fluorescence (HTRF) assay. Set-up: purchased Cisbio 63ADK000CB16PEG. The conditions noted are these: absence of GTP, 4° C. for 3 hr, read-out: KRAS (G12C) binding. Summed up: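 HTRF kit measuring compound-induced block of KRAS(G12C)-SOS1 interaction without GTP. Compounds tested as 3-fold serial dilutions down to 1.02 nM, incubated with reaction components 3 h at 4 °C in sealed plates before fluorescence read.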
Sequence of KRAS(G12C) (P01116 1-188 isoform P01116-2 G12C): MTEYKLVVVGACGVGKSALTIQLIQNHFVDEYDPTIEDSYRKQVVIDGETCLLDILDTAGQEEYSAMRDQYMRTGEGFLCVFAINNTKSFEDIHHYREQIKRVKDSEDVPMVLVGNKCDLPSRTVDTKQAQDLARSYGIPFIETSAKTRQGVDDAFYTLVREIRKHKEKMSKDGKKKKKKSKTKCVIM
A general note: Time-resolved FRET reads energy transfer from a long-lived donor to a nearby acceptor.

Test [2] concerns MIA PaCa-2 human pancreatic carcinoma. Put plainly: MIA PaCa-2 CCK-8 proliferation assay. The class given is cell-based. The conditions noted are these: Homo sapiens, MIA PaCa-2, 72 h, MIA PaCa-2 cells. In outline:
as §1

Regarding `C=CC(=O)N1CCN(c2nc(NCCC(=O)N3CCC(CN4CCN(Cc5ccc(-n6c(C(=O)NCC(F)(F)F)nnc6-c6cc(CC)c(O)cc6O)cc5)CC4)CC3)nc3c2CCN(c2cccc4cccc(Cl)c24)C3)C[C@H]1CC#N` [Compound 80, (R)-4-(4-((4-((1-(3-((4-(4-acryloyl-3-(cyanomethyl)piperazin-1-yl)-7-(8-chloronaphthalen-1-yl)-5,6,7,8-tetrahydropyrido[3,4-d]pyrimidin-2-yl)amino)propanoyl)piperidin-4-yl)methyl)piperazin-1-yl)methyl)phenyl)-5-(5-ethyl-2,4-dihydroxyphenyl)-N-(2,2,2-trifluoroethyl)-4H-1,2,4-triazole-3-carboxamide, trifluoroacetic acid], the figures for the IC50 on HSP90a protein and at KRAS(G12C) were 0.1 to 1 µM and greater than 1 µM, respectively. The 50% effective concentration (EC50) in test [1] lay in the range of 0.1 to 1 µM.
On HSP90a protein, `CCC(=O)N1CCN(c2nc(NCCC(=O)N3CCC(Cc4ccc(CN(C)Cc5ccc(-n6c(O)nnc6-c6cc(C(C)C)c(O)cc6O)cc5)cc4)CC3)nc3c2CCN(c2cc(O)cc4ccccc24)C3)CC1` [Compound 63, trifluoroacetic acid] displayed an IC50 of 0.1 to 1 µM. Also, the figures for the EC50 in test [2] and in test [1] were greater than 1 µM and 0.1 to 1 µM, respectively.
With `C=C(F)C(=O)N1CCN(c2nc(OC[C@@H]3CCCN3CCCOCCC(=O)NCc3ccc(-n4c(O)nnc4-c4cc(CC)c(O)cc4O)cc3)nc3c2CCN(c2cccc4cccc(Cl)c24)C3)C[C@@H]1CC#N` [Compound 161, 3-(3-((S)-2-(((7-(8-chloronaphthalen-1-yl)-4-((S)-3-(cyanomethyl)-4-(2-fluoroacryloyl)piperazin-1-yl)-5,6,7,8-tetrahydropyrido[3,4-d]pyrimidin-2-yl)oxy)methyl)pyrrolidin-1-yl)propoxy)-N-(4-(3-(5-ethyl-2,4-dihydroxyphenyl)-5-hydroxy-4H-1,2,4-triazol-4-yl)benzyl)propanamide], the IC50 on HSP90a protein and on KRAS(G12C) was 0.1 to 1 µM in each case. The concentration giving a half-maximal response (EC50) in test [2] and in test [1] was greater than 1 µM each time.
For `CC(C)c1cc(-c2nnc(C(=O)NCC(F)(F)F)n2-c2ccc(CC3CCN(Cc4ccc(CNC(=O)CCNc5nc6c(c(N7CCN(C(=O)C(C)(C)C)CC7)n5)CCN(c5cc(O)cc7ccccc57)C6)cc4)CC3)cc2)c(O)cc1O` [Compound 156], the figures for the IC50 on HSP90a protein and at KRAS(G12C) were 0.1 to 1 µM and greater than 1 µM, respectively. In test [1], this compound came in with an EC50 of 0.1 to 1 µM.
In the case of `CC(=O)N1CCN(c2nc(NCCC(=O)N3CCC(Cc4ccc(CN(C)Cc5ccc(-n6c(C(=O)NCC(F)(F)F)nnc6-c6cc(C(C)C)c(O)cc6O)cc5)cc4)CC3)nc3c2CCN(c2cccc4ccccc24)C3)C[C@H]1CC#N` [Compound 123, (R)-4-(4-(((4-((1-(3-((4-(4-acetyl-3-(cyanomethyl)piperazin-1-yl)-7-(naphthalen-1-yl)-5,6,7,8-tetrahydropyrido[3,4-d]pyrimidin-2-yl)amino)propanoyl)piperidin-4-yl)methyl)benzyl)(methyl)amino)methyl)phenyl)-5-(2,4-dihydroxy-5-isopropylphenyl)-N-(2,2,2-trifluoroethyl)-4H-1,2,4-triazole-3-carboxamide, trifluoroacetic acid], the IC50 on HSP90a protein is greater than 1 µM. Also, the half-maximal effective concentration (EC50) in test [2] and in test [1] was 0.1 to 1 µM throughout.
For the compound `C=CC(=O)N1CCN(c2nc(OC[C@@H]3CCCN3C(=O)C3CCN(Cc4ccc(-n5c(O)nnc5-c5cc(C(C)C)c(O)cc5O)cc4)CC3)nc3c2CCN(c2cccc4cccc(C)c24)C3)C[C@@H]1CC#N` [Compound 155, 2-((S)-1-acryloyl-4-(2-(((S)-1-(1-(4-(3-(2,4-dihydroxy-5-isopropylphenyl)-5-hydroxy-4H-1,2,4-triazol-4-yl)benzyl)piperidine-4-carbonyl)pyrrolidin-2-yl)methoxy)-7-(8-methylnaphthalen-1-yl)-5,6,7,8-tetrahydropyrido[3,4-d]pyrimidin-4-yl)piperazin-2-yl)acetonitrile, trifluoroacetic acid], the IC50 on HSP90a protein was 0.1 to 1 µM; on KRAS(G12C), greater than 1 µM. This compound returned a concentration giving a half-maximal response (EC50) in test [1] greater than 1 µM.
At HSP90a protein, `C=CC(=O)N1CCN(c2nc(NCCC(=O)N3CCC(Cc4ccc(CN(C)Cc5ccc(-n6c(C(=O)NCC(F)(F)F)nnc6-c6cc(C(C)C)c(O)cc6O)cc5)cc4)CC3)nc3c2CCN(c2cccc4ccccc24)C3)C[C@H]1CC#N` [Compound 110, (R)-4-(4-(((4-((1-(3-((4-(4-acryloyl-3-(cyanomethyl)piperazin-1-yl)-7-(naphthalen-1-yl)-5,6,7,8-tetrahydropyrido[3,4-d]pyrimidin-2-yl)amino)propanoyl)piperidin-4-yl)methyl)benzyl)(methyl)amino)methyl)phenyl)-5-(2,4-dihydroxy-5-isopropylphenyl)-N-(2,2,2-trifluoroethyl)-4H-1,2,4-triazole-3-carboxamide, trifluoroacetic acid] returned an IC50 greater than 1 µM. Further, the 50% effective concentration (EC50) in test [2] and in test [1] was greater than 1 µM each time.
The compound `C=CC(=O)N1CCN(c2nc(NCCC(=O)N3CCC(CN4CCN(Cc5ccc(-n6c(C(=O)NCC(F)(F)F)nnc6-c6cc(C)c(O)cc6O)cc5)CC4)CC3)nc3c2CCN(c2cccc4ccccc24)C3)C[C@H]1CC#N` [Compound 77, (R)-4-(4-((4-((1-(3-((4-(4-acryloyl-3-(cyanomethyl)piperazin-1-yl)-7-(naphthalen-1-yl)-5,6,7,8-tetrahydropyrido[3,4-d]pyrimidin-2-yl)amino)propanoyl)piperidin-4-yl)methyl)piperazin-1-yl)methyl)phenyl)-5-(2,4-dihydroxy-5-methylphenyl)-N-(2,2,2-trifluoroethyl)-4H-1,2,4-triazole-3-carboxamide, trifluoroacetic acid] gave an IC50 at HSP90a protein of 0.1 to 1 µM. In test [1], the EC50 lay in the range of 0.1 to 1 µM.
Turning to `C=C(F)C(=O)N1CCN(c2nc(NCCC(=O)NCc3ccc(CN4CCC(Cc5ccc(-n6c(C(=O)NCC(F)(F)F)nnc6-c6cc(C(C)C)c(O)cc6O)cc5)CC4)cc3)nc3c2CCN(c2cc(O)cc4ccccc24)C3)CC1` [Compound 154, 5-(2,4-dihydroxy-5-isopropylphenyl)-4-(4-((1-(4-((3-((4-(4-(2-fluoroacryloyl)piperazin-1-yl)-7-(3-hydroxynaphthalen-1-yl)-5,6,7,8-tetrahydropyrido[3,4-d]pyrimidin-2-yl)amino)propanamido)methyl)benzyl)piperidin-4-yl)methyl)phenyl)-N-(2,2,2-trifluoroethyl)-4H-1,2,4-triazole-3-carboxamide], at HSP90a protein, the IC50 fell in the range of 0.1 to 1 µM. Moreover, in test [1], the concentration giving a half-maximal response (EC50) fell in the range of 0.1 to 1 µM.
In the case of `C=CC(=O)N1CCN(c2nc(NCCC(=O)NCc3ccc(-n4c(O)nnc4-c4cc(CC)c(O)cc4O)cc3F)nc3c2CCN(c2cccc4cccc(Cl)c24)C3)C[C@H]1CC#N` [Compound 83, (R)-3-((4-(4-acryloyl-3-(cyanomethyl)piperazin-1-yl)-7-(8-chloronaphthalen-1-yl)-5,6,7,8-tetrahydropyrido[3,4-d]pyrimidin-2-yl)amino)-N-(4-(3-(5-ethyl-2,4-dihydroxyphenyl)-5-hydroxy-4H-1,2,4-triazol-4-yl)-2-fluorobenzyl)propanamide, trifluoroacetic acid], the IC50 at HSP90a protein is greater than 1 µM. The compound further displayed an EC50 in test [1] greater than 1 µM.

The EC50 is the concentration needed to bring the measured effect to its halfway point. Read a high EC50 as lower potency in that assay.

Values taken from patent US20230391772A1, “METHODS AND COMPOSITIONS FOR TARGETED PROTEIN DEGRADATION” (Ranok Therapeutics (Hangzhou) Co. Ltd., priority 2020, published 2023).
